#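 Results reflect a 48-hour exposure of cells in 96-well plates to compound at five concentrations. Abbreviation: GI50, concentration required for 50% inhibition of growth.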 Activity calls are given as the source filed them. No stated cut-off is given here; in the data, active = GI50 up to about 1.1 µM and inactive = higher.
# Key:
# Experiment in all cases: growth of human tumour cells (NCI), 48 h
# NCI-H226 = test system: NCI-H226
# COLO 205 = test system: COLO 205
# NCI-H23 = test system: NCI-H23
# SF-268 = test system: SF-268
# MCF7 = test system: MCF7
# A498 = test system: A498
# SK-MEL-2 = test system: SK-MEL-2
# IGROV-1 = test system: IGROV-1
# SN12C = test system: SN12C
# 786-0 = test system: 786-0
# PC-3 = test system: PC-3
# OVCAR-8 = test system: OVCAR-8
# MDA-MB-435 = test system: MDA-MB-435
# NCI-H460 = test system: NCI-H460
# TK-10 = test system: TK-10
# SR = test system: SR
# CAKI-1 = test system: CAKI-1
# UACC-257 = test system: UACC-257
# RXF 631 = test system: RXF 631
# SK-MEL-5 = test system: SK-MEL-5
# Malme-3M = test system: Malme-3M
# SK-MEL-28 = test system: SK-MEL-28
# DU-145 = test system: DU-145
# SNB-19 = test system: SNB-19
# NCI/ADR-RES = test system: NCI/ADR-RES
# KM12 = test system: KM12
# MOLT-4 = test system: MOLT-4
# DMS-114 = test system: DMS-114
# EKVX = test system: EKVX
# M14 = test system: M14
# HOP-62 = test system: HOP-62
# OVCAR-5 = test system: OVCAR-5
# HCT-116 = test system: HCT-116
# DMS-273 = test system: DMS-273
# K562 = test system: K562
# SK-OV-3 = test system: SK-OV-3
# HT-29 = test system: HT-29
# CCRF-CEM = test system: CCRF-CEM
# KM-20L2 = test system: KM-20L2
# HOP-92 = test system: HOP-92
# SW-620 = test system: SW-620
# UACC-62 = test system: UACC-62
# U-251 = test system: U-251
# Hs-578T = test system: Hs-578T
# RXF 393 = test system: RXF 393
# T47D = test system: T47D
# OVCAR-4 = test system: OVCAR-4
# SF-539 = test system: SF-539
# MDA-MB-231 = test system: MDA-MB-231
# LXFL 529 = test system: LXFL 529
# SNB-78 = test system: SNB-78
# BT-549 = test system: BT-549
# SF-295 = test system: SF-295
# LOX IMVI = test system: LOX IMVI
# HCC 2998 = test system: HCC 2998
# MDA-N = test system: MDA-N
# HCT-15 = test system: HCT-15
# SNB-75 = test system: SNB-75
# RPMI-8226 = test system: RPMI-8226
# UO-31 = test system: UO-31
# DLD-1 = test system: DLD-1
# ACHN = test system: ACHN
# HOP-18 = test system: HOP-18
# A549 = test system: A549
# HL-60 = test system: HL-60
# OVCAR-3 = test system: OVCAR-3
# M19-MEL = test system: M19-MEL
# NCI-H522 = test system: NCI-H522
compound,measurement,setting,value
CCOC(=O)/C(=C\c1ccccc1)C(=O)CCN1CCOCC1,GI50,NCI-H226,20.7 µM (inactive)
same,GI50,COLO 205,3.66 µM (inactive)
same,GI50,NCI-H23,8.85 µM (inactive)
same,GI50,SF-268,8.17 µM (inactive)
same,GI50,MCF7,5.2 µM (inactive)
same,GI50,A498,16.7 µM (inactive)
same,GI50,SK-MEL-2,17.8 µM (inactive)
same,GI50,IGROV-1,15.2 µM (inactive)
same,GI50,SN12C,8.65 µM (inactive)
same,GI50,786-0,7.78 µM (inactive)
same,GI50,PC-3,12.2 µM (inactive)
same,GI50,OVCAR-8,4.06 µM (inactive)
same,GI50,MDA-MB-435,19 µM (inactive)
same,GI50,NCI-H460,14.4 µM (inactive)
same,GI50,TK-10,6.5 µM (inactive)
same,GI50,SR,2.1 µM (inactive)
same,GI50,CAKI-1,4.49 µM (inactive)
same,GI50,UACC-257,4.58 µM (inactive)
same,GI50,RXF 631,11.3 µM (inactive)
same,GI50,SK-MEL-5,12.6 µM (inactive)
same,GI50,Malme-3M,2.7 µM (inactive)
same,GI50,SK-MEL-28,3.54 µM (inactive)
same,GI50,DU-145,17.2 µM (inactive)
same,GI50,SNB-19,16.2 µM (inactive)
same,GI50,NCI/ADR-RES,3.06 µM (inactive)
same,GI50,KM12,7.94 µM (inactive)
same,GI50,MOLT-4,1.99 µM (inactive)
same,GI50,DMS-114,4.92 µM (inactive)
same,GI50,EKVX,15.6 µM (inactive)
same,GI50,M14,6.67 µM (inactive)
same,GI50,HOP-62,21 µM (inactive)
same,GI50,OVCAR-5,17.4 µM (inactive)
same,GI50,HCT-116,8.97 µM (inactive)
same,GI50,DMS-273,10.4 µM (inactive)
same,GI50,K562,1.57 µM (inactive)
same,GI50,SK-OV-3,23 µM (inactive)
same,GI50,HT-29,6.3 µM (inactive)
same,GI50,CCRF-CEM,1.29 µM (inactive)
same,GI50,KM-20L2,9.89 µM (inactive)
same,GI50,HOP-92,5.86 µM (inactive)
same,GI50,SW-620,2.33 µM (inactive)
same,GI50,UACC-62,4.24 µM (inactive)
same,GI50,U-251,8.55 µM (inactive)
same,GI50,Hs-578T,47.1 µM (inactive)
same,GI50,RXF 393,2.86 µM (inactive)
same,GI50,T47D,16.3 µM (inactive)
same,GI50,OVCAR-4,12.4 µM (inactive)
same,GI50,SF-539,7.26 µM (inactive)
same,GI50,MDA-MB-231,13.5 µM (inactive)
same,GI50,LXFL 529,1.84 µM (inactive)
same,GI50,SNB-78,11.6 µM (inactive)
same,GI50,BT-549,16.7 µM (inactive)
same,GI50,SF-295,19.2 µM (inactive)
same,GI50,LOX IMVI,2.8 µM (inactive)
same,GI50,HCC 2998,17.8 µM (inactive)
same,GI50,MDA-N,6.03 µM (inactive)
same,GI50,HCT-15,3.2 µM
same,GI50,SNB-75,16.4 µM (inactive)
same,GI50,RPMI-8226,2.07 µM (inactive)
same,GI50,UO-31,16.9 µM (inactive)
same,GI50,DLD-1,2.43 µM (inactive)
same,GI50,ACHN,5.38 µM (inactive)
same,GI50,HOP-18,13.9 µM (inactive)
same,GI50,A549,22.4 µM (inactive)
same,GI50,HL-60,1.4 µM (inactive)
same,GI50,OVCAR-3,7.41 µM (inactive)
same,GI50,M19-MEL,3.62 µM (inactive)
same,GI50,NCI-H522,1.67 µM (inactive)
CC(Cl)(/C=C/Cl)C(Cl)/C=C/C(Cl)(CCl)CBr (stereo unspecified),GI50,NCI-H226,10.2 µM (inactive)
same,GI50,COLO 205,2.01 µM (inactive)
same,GI50,NCI-H23,1.88 µM (inactive)
same,GI50,SF-268,2.09 µM (inactive)
same,GI50,A498,13.5 µM (inactive)
same,GI50,SK-MEL-2,3.82 µM (inactive)
same,GI50,IGROV-1,8.71 µM (inactive)
same,GI50,SN12C,3.18 µM (inactive)
same,GI50,786-0,2.9 µM (inactive)
same,GI50,OVCAR-8,1.71 µM (inactive)
same,GI50,NCI-H460,3.15 µM (inactive)
same,GI50,TK-10,7.45 µM (inactive)
same,GI50,SR,0.191 µM (active)
same,GI50,CAKI-1,12.2 µM (inactive)
same,GI50,UACC-257,2.2 µM (inactive)
same,GI50,RXF 631,1.91 µM (inactive)
same,GI50,SK-MEL-5,7.52 µM (inactive)
same,GI50,Malme-3M,3.37 µM (inactive)
same,GI50,SK-MEL-28,2.24 µM (inactive)
same,GI50,SNB-19,14.1 µM (inactive)
same,GI50,KM12,6.64 µM (inactive)
same,GI50,MOLT-4,0.373 µM (active)
same,GI50,DMS-114,1.96 µM (inactive)
same,GI50,EKVX,31.8 µM (inactive)
same,GI50,M14,2.54 µM (inactive)
same,GI50,HOP-62,24.3 µM (inactive)
same,GI50,OVCAR-5,16 µM (inactive)
same,GI50,HCT-116,1.54 µM (inactive)
same,GI50,DMS-273,3.63 µM (inactive)
same,GI50,K562,1.65 µM (inactive)
same,GI50,SK-OV-3,17.1 µM (inactive)
same,GI50,HT-29,1.69 µM (inactive)
same,GI50,CCRF-CEM,0.305 µM (active)
same,GI50,KM-20L2,5.22 µM (inactive)
same,GI50,HOP-92,2.07 µM (inactive)
same,GI50,SW-620,2.15 µM (inactive)
same,GI50,UACC-62,1.68 µM (inactive)
same,GI50,U-251,3.72 µM (inactive)
same,GI50,RXF 393,1.45 µM (inactive)
same,GI50,OVCAR-4,3.05 µM (inactive)
same,GI50,LXFL 529,1.22 µM (inactive)
same,GI50,SNB-78,1.75 µM (inactive)
same,GI50,SF-295,6.53 µM (inactive)
same,GI50,LOX IMVI,1.66 µM (inactive)
same,GI50,HCC 2998,14.6 µM (inactive)
same,GI50,HCT-15,0.308 µM
same,GI50,SNB-75,3.17 µM (inactive)
same,GI50,RPMI-8226,1.66 µM (inactive)
same,GI50,UO-31,14.5 µM (inactive)
same,GI50,DLD-1,2.47 µM (inactive)
same,GI50,ACHN,5.51 µM (inactive)
same,GI50,HOP-18,2.52 µM (inactive)
same,GI50,A549,15.2 µM (inactive)
same,GI50,HL-60,0.533 µM (active)
same,GI50,OVCAR-3,12.5 µM (inactive)
same,GI50,M19-MEL,3.12 µM (inactive)
same,GI50,NCI-H522,1.45 µM (inactive)
C#CC[C@]12CC(=O)CC[C@H]1CC1(C2)OCCO1,GI50,NCI-H226,> 100 µM (inactive)
same,GI50,COLO 205,> 100 µM (inactive)
same,GI50,SF-268,> 100 µM (inactive)
same,GI50,A498,> 100 µM (inactive)
same,GI50,SK-MEL-2,> 100 µM (inactive)
same,GI50,IGROV-1,> 100 µM (inactive)
same,GI50,SN12C,> 100 µM (inactive)
same,GI50,786-0,> 100 µM (inactive)
same,GI50,OVCAR-8,> 100 µM (inactive)
same,GI50,NCI-H460,> 100 µM (inactive)
same,GI50,TK-10,> 100 µM (inactive)
same,GI50,SR,> 100 µM (inactive)
same,GI50,CAKI-1,> 100 µM (inactive)
same,GI50,UACC-257,> 100 µM (inactive)
same,GI50,RXF 631,> 100 µM (inactive)
same,GI50,SK-MEL-5,> 100 µM (inactive)
same,GI50,Malme-3M,> 100 µM (inactive)
same,GI50,SK-MEL-28,> 100 µM (inactive)
same,GI50,SNB-19,> 100 µM (inactive)
same,GI50,KM12,> 100 µM (inactive)
same,GI50,MOLT-4,> 100 µM (inactive)
same,GI50,DMS-114,> 100 µM (inactive)
same,GI50,M14,> 100 µM (inactive)
same,GI50,HOP-62,> 100 µM (inactive)
same,GI50,HCT-116,> 100 µM (inactive)
same,GI50,DMS-273,> 100 µM (inactive)
same,GI50,K562,> 100 µM (inactive)
same,GI50,SK-OV-3,> 100 µM (inactive)
same,GI50,CCRF-CEM,> 100 µM (inactive)
same,GI50,KM-20L2,> 100 µM (inactive)
same,GI50,SW-620,> 100 µM (inactive)
same,GI50,UACC-62,> 100 µM (inactive)
same,GI50,U-251,> 100 µM (inactive)
same,GI50,RXF 393,> 100 µM (inactive)
same,GI50,OVCAR-4,> 100 µM (inactive)
same,GI50,SF-539,> 100 µM (inactive)
same,GI50,LXFL 529,> 100 µM (inactive)
same,GI50,SNB-78,> 100 µM (inactive)
same,GI50,HCC 2998,> 100 µM (inactive)
same,GI50,HCT-15,> 100 µM
same,GI50,SNB-75,> 100 µM (inactive)
same,GI50,RPMI-8226,> 100 µM (inactive)
same,GI50,UO-31,> 100 µM (inactive)
same,GI50,DLD-1,> 100 µM (inactive)
same,GI50,ACHN,> 100 µM (inactive)
same,GI50,HOP-18,> 100 µM (inactive)
same,GI50,A549,> 100 µM (inactive)
same,GI50,HL-60,> 100 µM (inactive)
same,GI50,OVCAR-3,> 100 µM (inactive)
same,GI50,M19-MEL,> 100 µM (inactive)
same,GI50,NCI-H522,> 100 µM (inactive)

# Source: ChEMBL document CHEMBL1201862, “PubChem BioAssay data set” (2004)
